According to patent US6255502A, “Pharmaceutical composition containing acid addition salt of basic drug” (Farmarc Nederland B.V., priority 1996, dated 2001):
≈ marks a conversion by molar mass, not a printed value.

Tests used:
[1] = Deliquescence of precipitate on standing; type: physicochemical
[2] = Partition coefficient and apparent partition coefficient, n-octanol / phosphate buffer pH 7.4 at 25° C.; type: physicochemical; details: n-octanol / phosphate buffer pH 7.4, 25° C.; for Partition Coefficient: P = Co/Cw; for Apparent Partition Coefficient: Papp=P/(1+10^pKa-pH)
Protocol: Melting points (peak onset temperature) were determined by Differential Scanning Calorimetry using a Perkin Elmer DSC 7. The saturation solubilities were determined by shaking an excess of the compound in phosphate buffer pH 7.4 at 25° C. […] Pharmaceutical Press p70]:
where P=Co /Cw and where Co is the concentration of the drug in n-octanol and Cw is the concentration of the drug in phosphate buffer pH 7.4 at 25° C. Drug concentrations were determined by HPLC.

[3] = Aqueous solubility (stated in the Examples); type: physicochemical; details: aqueous solution
[4] = Thermal decomposition seen in differential scanning calorimetry; type: physicochemical; details: DSC from 50 to 200° C.
Protocol: Salbutamol base (1.2007 g; 5.02 mmol) was dissolved in ethanol (100 mL) with vigorous stirring. Glycodeoxycholic acid (2.4601 g; water content: 4.25% w/w; 5.25 mmol~5% molar excess) was added and dissolved with stirring. A clear, colourless solution was obtained. The ethanol was removed by vacuum rotary-evaporation to give a viscous, yellow residue. Ethyl acetate (200 mL) was added to the residue and the mixture heated in a water bath with constant agitation. As the yellow residue dissolved, a white precipitate formed. Agitation was continued until the yellow residue disappeared. The ethyl acetate solution was cooled in an ice bath. […] Analysis by differential scanning calorimetry from 50 to 200° C. gave no significant thermal event. Slow decomposition was evident after 110° C.

[5] = providing an appropriate pH gradient existed; cited from earlier work
[6] = dogs, sustained-release oral formulation study; cited from earlier work
[7] = by forming a complex with a fatty acid; cited from earlier work
[8] = cited from earlier work

## COc1ccc2c3c1O[C@H]1[C@@H](O)C=C[C@H]4[C@@H](C2)N(C)CC[C@@]341 [Codeine caprate, codeine caprate]
[1]
  Deliquescence: very deliquescent

## CC(C)(C)NCC(O)c1ccc(O)c(CO)c1 (stereo not drawn) [Salbutamol base]
[2]
  Partition Coefficient: 0,42
  Apparent Partition Coefficient: 0.005222

## CC(C)(C)NCC(O)c1ccc(O)c(CO)c1 (stereo not drawn) [Salbutamol caprate]
[3]; water
  solubility: 4760 µg/mL (≈ 19.9 mM)
[2]
  Partition Coefficient: 0,54
  Apparent Partition Coefficient: 0,006714

## CC(C)(C)NCC(O)c1ccc(O)c(CO)c1 (stereo not drawn) [Salbutamol glycodeoxycholate, salbutamol glycodeoxycholate]
[3]
  Aqueous solubility: greater than 8.35 mg/mL
[2]
  Partition Coefficient: 0,61
  Apparent Partition Coefficient: 0,007584
[4]
  Slow decomposition evident after: > 110 °C

## CNS(=O)(=O)Cc1ccc2[nH]cc(CCN(C)C)c2c1 [Sumatriptan base]
[2]
  Partition Coefficient: 0,69
  Apparent Partition Coefficient: 0,004039

## CNS(=O)(=O)Cc1ccc2[nH]cc(CCN(C)C)c2c1 [Sumatriptan caprate, sumatriptan caprate]
[2]
  Partition Coefficient: 1,54
  Apparent Partition Coefficient: 0.009015

## CCCCCCCCCCCC(=O)O [lauric acid]
[5]
  Transport of cations across an iso-Pr myristate membrane: facilitated

## CCCCCCCC/C=C\CCCCCCCC(=O)O [oleic acid]
[5]
  Transport of cations across an iso-Pr myristate membrane: facilitated

## CC(C)NCC(O)COc1cccc2ccccc12 (stereo not drawn) [propranolol laurate]
[6]
  bioavailability: An increase in bioavailability was observed

## CC(C)NCC(O)COc1cccc2ccccc12 (stereo not drawn) [propranolol]
[7]
  Penetration across the stratum corneum: a significant proportion of propranolol will penetrate across the stratum corneum

## CCCCCCCCCC(=O)[O-].[Na+] [sodium caprate]
[8]
  effect on rat nasal absorption of insulin: promoting effect

## CCCCCCCC(=O)[O-].[Na+] [sodium caprylate]
[8]
  effect on rat nasal absorption of insulin: promoting effect

## CCCCCCCCCCCC(=O)[O-].[Na+] [sodium laurate]
[8]
  effect on rat nasal absorption of insulin: promoting effect
